For 9 compounds, CC50 and EC50 results are on record in patent US12678446B2 (PFIZER INC., priority 2020, dated 2026).

Structures are written as SMILES.

One series can be described thus: cell toxicity CC50. The series is classed as cell-based. The conditions noted are these: human; Hep-G2 cells; mean of at least two experiments; read-out: Cell Cytotoxicity CC50.
Series [1] deals with RSV (RSV A2 ECACC, 0709161v). The series can be described thus: RSV plaque reduction assay. Format: cell-based, respiratory syncytial virus. To be noted: human respiratory syncytial virus, HepG2, read-out: RSV A2 Plaque EC50, RSV A2 in Hep-G2 cells; mean of at least two experiments unless noted (n = 1). In short, it runs like this: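 Hep-G2 monolayers infected with 100 PFU/well RSV A2 premixed with eight serial compound dilutions (2 h, 37° C.), then kept 2 days under CMC overlay with compound in DMEM/2% FBS. Plaques immunostained (HRP/TrueBlue) and counted; % infection versus virus control gives EC50, mean of at least two experiments, rounded.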

As for `CCc1ccc(-c2nn3c(c2C(=O)N[C@H]2N=C(c4ccccc4)c4cccc(F)c4NC2=O)O[C@H](C)CC3)c(C)n1` [Example 66, (5R)-2-(6-Ethyl-2-methyl-3-pyridyl)-N-[(3S)-9-fluoro-2-oxo-5-phenyl-1,3-dihydro-1,4-benzodiazepin-3-yl]-5-methyl-6,7-dihydro-5H-pyrazolo[5,1-b][1,3]oxazine-3-carboxamide], in the series “cell toxicity CC50”, the CC50 is more than 25 µM. The EC50 in series [1] turned out to be 0.06 µM.

With `CC(C)Nc1ccc(-c2nn3c(c2C(=O)N[C@H]2N=C(c4ccccc4)c4cccc(F)c4NC2=O)O[C@H](C)CC3)cn1` [Example 67, (5R)-N-[(3S)-9-fluoro-2-oxo-5-phenyl-1,3-dihydro-1,4-benzodiazepin-3-yl]-2-[6-(isopropylamino)-3-pyridyl]-5-methyl-6,7-dihydro-5H-pyrazolo[4,1-b][1,3]oxazine-3-carboxamide], in the series “cell toxicity CC50”, the CC50 is more than 25 µM. For the same compound, the EC50 in series [1] is 0.019 µM.

Consider `CCn1ccc(-c2nn3c(c2C(=O)N[C@H]2N=C(c4ccccc4)c4cccc(F)c4NC2=O)O[C@H](C)CC3)n1` [Example 68, (5R)-2-(1-Ethylpyrazol-3-yl)-N-[(3S)-9-fluoro-2-oxo-5-phenyl-1,3-dihydro-1,4-benzodiazepin-3-yl]-5-methyl-6,7-dihydro-5H-pyrazolo[5,1-b][1,3]oxazine-3-carboxamide], for which the CC50 in “cell toxicity CC50” was more than 25 µM. Besides, the EC50 in series [1] came out at 0.307 µM.

Regarding `CC(C)Nc1ccc(-c2nn3c(c2C(=O)N[C@H]2N=C(c4ccccc4)c4cccc(F)c4NC2=O)O[C@@H](C)CC3)cn1` [Example 69], the CC50 in the series “cell toxicity CC50” was more than 25 µM. For the same compound, the EC50 in series [1] amounted to 0.034 µM.

As for `CC(C)c1ccc(-c2nn3c(c2C(=O)N[C@H]2N=C(c4ccccc4)c4cccc(F)c4NC2=O)O[C@H](C)CC3)cn1` [Example 70, (5R)-5-Methyl-2-(6-propan-2-ylpyridin-3-yl)-N-[(3S)-9-fluoro-2-oxo-5-phenyl-1,3-dihydro-1,4-benzodiazepin-3-yl]-6,7-dihydro-5H-pyrazolo[5,1-b][1,3]oxazine-3-carboxamide], the CC50 in “cell toxicity CC50” was more than 25 µM. Also, the EC50 in series [1] was 0.05 µM.

`[2H]C([2H])([2H])Nc1ccc(-c2nn3c(c2C(=O)N[C@H]2N=C(c4ccccc4)c4cccc(F)c4NC2=O)O[C@H](C)CC3)cn1` [Example 71, (5R)-5-Methyl-N-[(3S)-9-fluoro-2-oxo-5-phenyl-1,3-dihydro-1,4-benzodiazepin-3-yl]-2-[6-(trideuteriomethylamino)pyridin-3-yl]-6,7-dihydro-5H-pyrazolo[5,1-b][1,3]oxazine-3-carboxamide]: the CC50 in the series “cell toxicity CC50” was more than 25 µM. Moreover, the EC50 in series [1] is 0.091 µM.

On to `Cc1ccc(-c2nn3c(c2C(=O)N[C@H]2N=C(c4ccccc4)c4cccc(F)c4NC2=O)O[C@H](C)CC3)c(F)n1` [Example 73, (5R)-2-(2-Fluoro-6-methylpyridin-3-yl)-5-methyl-N-[(3S)-9-fluoro-2-oxo-5-phenyl-1,3-dihydro-1,4-benzodiazepin-3-yl]-6,7-dihydro-5H-pyrazolo[5,1-b][1,3]oxazine-3-carboxamide], for which, in “cell toxicity CC50”, the CC50 was more than 25 µM. Also, the EC50 in series [1] came out at 0.091 µM.

With `CCc1ccc(-c2nn3c(c2C(=O)N[C@H]2N=C(c4ccccc4)c4cccc(F)c4NC2=O)O[C@H](C)CC3)cn1` [Example 74, (5R)-2-(6-Ethylpyridin-3-yl)-5-methyl-N-[(3S)-9-fluoro-2-oxo-5-phenyl-1,3-dihydro-1,4-benzodiazepin-3-yl]-6,7-dihydro-5H-pyrazolo[5,1-b][1,3]oxazine-3-carboxamide], the CC50 in “cell toxicity CC50” was more than 25 µM. In addition, the EC50 in series [1] was determined as 0.039 µM.

Take `CCc1ccc(-c2nn3c(c2C(=O)N[C@H]2N=C(c4ccccc4)c4cccc(F)c4NC2=O)O[C@H](C)CC3)c(F)c1` [Example 75, (5R)-2-(4-Ethyl-2-fluorophenyl)-5-methyl-N-[(3S)-9-fluoro-2-oxo-5-phenyl-1,3-dihydro-1,4-benzodiazepin-3-yl]-6,7-dihydro-5H-pyrazolo[5,1-b][1,3]oxazine-3-carboxamide]: in “cell toxicity CC50”, the CC50 is more than 25 µM. For the same compound, the concentration giving a half-maximal response (EC50) in series [1] was 0.158 µM.
